Reference: patent US6350585B1, “Reagent for assay of amylase isozyme activity” (priority 1998, dated 2002)

How the values were obtained:
Format in all cases: biochemical
[1] = biological target: T1, S-type amylase (Homo sapiens, UniProt P0DUB6); test: S-type amylase activity assay of serum by subtraction (reagent F minus reagent G); conditions: for S-type amylase activity value: change in absorbance with reagent F minus reagent G
T1 construct: Serum (1, 2 or 3); from tissue; host or cells: serum
T1 sequence (P0DUB6 16-511): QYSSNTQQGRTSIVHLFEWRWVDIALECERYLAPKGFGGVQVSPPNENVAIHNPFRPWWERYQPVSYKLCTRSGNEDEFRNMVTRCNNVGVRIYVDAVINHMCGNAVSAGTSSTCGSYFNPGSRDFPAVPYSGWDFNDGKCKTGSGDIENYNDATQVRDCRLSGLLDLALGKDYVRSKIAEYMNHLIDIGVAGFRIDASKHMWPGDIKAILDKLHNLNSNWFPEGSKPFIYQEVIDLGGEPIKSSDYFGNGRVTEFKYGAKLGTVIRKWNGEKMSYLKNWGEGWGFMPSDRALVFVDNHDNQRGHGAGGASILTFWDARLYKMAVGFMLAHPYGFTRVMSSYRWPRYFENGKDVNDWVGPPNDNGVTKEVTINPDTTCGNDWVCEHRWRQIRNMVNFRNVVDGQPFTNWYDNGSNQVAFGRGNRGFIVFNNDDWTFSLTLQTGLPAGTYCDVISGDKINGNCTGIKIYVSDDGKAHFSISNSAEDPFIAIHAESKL
Description: (§1) Potassium thiocyanate 140 mM
(§2) Substrate (GalG2CNP (Example) or G3CNP (Comparative Example)) 2.6 mM
(§3) S-type amylase inhibitory antibody 88E8 (manufactured by Roche Diagnostics K.K.) 15 mg/L
(§4) S-type amylase inhibitory antibody 66C7 (manufactured by Roche Diagnostics K.K.) 1.25 mg/L
(1) Distilled Water(Blank)
Each of the above-mentioned reagents (0.05 mL) was added to the above reagent F (3 mL) and the mixtures were left standing at 37° C. for 3 minutes. Then, change in absorbance at 405 nm was assayed and change in absorbance per minute was calculated (change in absorbance a). The same procedure was repeated using reagent G and change in absorbance per minute was calculated (change in absorbance b). Then, change in absorbance b was subtracted from change in absorbance a to give change in absorbance c, which was converted to S-type amylase activity value at this composition using the molecular extinction coefficient of CNP.

[2] = biological target: T2, P-type amylase (Calibzyme P) (Homo sapiens, UniProt P04746); test: amylase isozyme activity assay with sodium azide as activator, P-type amylase sample; conditions: for Percent residual enzyme activity: composition C/D
T2 construct: purchased International Reagents Corporation Calibzyme P
T2 sequence (P04746 16-511): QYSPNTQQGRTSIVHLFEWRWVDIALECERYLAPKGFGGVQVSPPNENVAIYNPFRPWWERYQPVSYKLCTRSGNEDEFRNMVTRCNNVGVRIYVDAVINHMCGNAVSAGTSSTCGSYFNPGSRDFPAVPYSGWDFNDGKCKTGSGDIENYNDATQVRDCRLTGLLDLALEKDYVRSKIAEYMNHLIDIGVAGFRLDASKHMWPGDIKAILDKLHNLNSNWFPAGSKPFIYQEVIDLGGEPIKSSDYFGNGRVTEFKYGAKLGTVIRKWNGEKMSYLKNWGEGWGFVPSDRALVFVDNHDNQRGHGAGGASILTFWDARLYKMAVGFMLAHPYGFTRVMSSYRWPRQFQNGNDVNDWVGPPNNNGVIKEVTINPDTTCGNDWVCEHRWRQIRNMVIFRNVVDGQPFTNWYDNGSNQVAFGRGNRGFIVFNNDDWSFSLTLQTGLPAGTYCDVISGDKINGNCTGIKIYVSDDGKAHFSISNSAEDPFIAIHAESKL
Description: S-type amylase inhibitory antibody 88E8 (manufactured by Roche Diagnostics K.K.) 20 mg/L
S-type amylase inhibitory antibody 66C7 (manufactured by Roche Diagnostics K.K.) 5 mg/L
as §2
(2) P-type Amylase (Calibzyme P, Manufactured by International Reagents Corporation)
Each of the above-mentioned samples (0.05 mL) was added to respective reagent C and D (3 mL) and the mixtures were left standing at 37° C. for 3 minutes. Then, change in absorbance at 405 nm was assayed and change in absorbance per minute was calculated.
In the Tables, P is the case where P-type amylase was used as the sample, and S is the case where S-type amylase was used. The relative sensitivity of P and S is based on the change in absorbance of G3CNP as 100, wherein sodium azide was 300 mM.
Percent residual enzyme activity and relative sensitivity were calculated by the following formulas.
Percent residual enzyme activity (%)=(change in absorbance of composition C)/(change in absorbance of composition D)×100
Relative sensitivity (%)=(change in absorbance of composition D)/(change in absorbance of Comparative Example wherein sodium azide was 300 mM)×100

[3] = biological target: T3, P-type amylase (Homo sapiens, UniProt P04746); test: P-type amylase activity assay of serum with reagent E; conditions: for P-type amylase activity value: potassium thiocyanate 140 mM
T3 construct: Serum (1, 2 or 3); from tissue; host or cells: serum
T3 sequence (P04746 16-511): T2 sequence (P04746 16-511)
Description: Good buffer (pH 6.2) 50 mM
as §3, §4, §1, §2
(1) Distilled water (blank)
Each of the above-mentioned reagents (0.05 mL) was added to the above reagent E (3 mL) and the mixtures were left standing at 37° C. for 3 minutes. Then, change in absorbance at 405 nm was assayed and change in absorbance per minute was calculated. The obtained change in absorbance was converted to P-type amylase activity value at this composition using the molecular extinction coefficient of CNP.

`O=[N+]([O-])c1ccc(O[C@H]2O[C@H](CO)[C@@H](O[C@H]3O[C@H](CO)[C@@H](O[C@@H]4O[C@H](CO)[C@H](O)[C@H](O)[C@H]4O)[C@H](O)[C@H]3O)[C@H](O)[C@H]2O)c(Cl)c1` [GalG2CNP, 2-chloro-4-nitrophenyl 4-O-β-D-galactopyranosylmaltoside] was tested, and the “S-type amylase activity value” ([1]; Serum 1) was 44.8 IU/L, the “S-type amylase activity value” ([1]; Serum 2) was 167.7 IU/L and the “S-type amylase activity value” ([1]; Serum 3) was 140.7 IU/L. The “sensitivity (change in absorbance) compared with Comparative Example” value ([1]; Table 6, serum samples) was “superior sensitivity”, the “Blank, change in absorbance per minute” value ([1]; distilled water as sample, compositions F and G) was 0.0003 ABS/min and the “Change in absorbance, Containing Antibody (Composition C)” value (“Change in absorbance … (Composition C)” for short) ([2]; sodium azide 0 mM) was 26.4 mABS/min. For the same compound, the “Change in absorbance, Without antibody (Composition D)” value ([2]; sodium azide 0 mM) was 26.3 mABS/min, the Relative sensitivity ([2]; sodium azide 0 mM, G3CNP at 300 mM = 100) was 57.7% and the “Percent residual enzyme activity” value ([2]; sodium azide 0 mM) was 100.4%. The “Change in absorbance … (Composition C)” value ([2]; sodium azide 30 mM) was 43.6 mABS/min, the “Change in absorbance, Without antibody (Composition D)” value ([2]; sodium azide 30 mM) was 44.6 mABS/min and the Relative sensitivity ([2]; sodium azide 30 mM, G3CNP at 300 mM = 100) was 97.8%. The Relative sensitivity ([2]; sodium azide 30 mM, G3CNP at 300 mM = 100, listed as Example) was “about 98%”, the “Percent residual enzyme activity” value ([2]; sodium azide 30 mM) was 97.8% and the “Change in absorbance … (Composition C)” value ([2]; sodium azide 60 mM) was 52.5 mABS/min. For the same compound, the “Change in absorbance, Without antibody (Composition D)” value ([2]; sodium azide 60 mM) was 52.8 mABS/min, the Relative sensitivity ([2]; sodium azide 60 mM, G3CNP at 300 mM = 100) was 115.8% and the “Percent residual enzyme activity” value ([2]; sodium azide 60 mM) was 99.4%. The “Change in absorbance … (Composition C)” value ([2]; sodium azide 90 mM) was 60.1 mABS/min, the “Change in absorbance, Without antibody (Composition D)” value ([2]; sodium azide 90 mM) was 59.6 mABS/min and the Relative sensitivity ([2]; sodium azide 90 mM, G3CNP at 300 mM = 100) was 130.7%. For the same compound, the “Percent residual enzyme activity” value ([2]; sodium azide 90 mM) was 100.8%, the “Change in absorbance … (Composition C)” value ([2]; sodium azide 120 mM) was 64.9 mABS/min and the “Change in absorbance, Without antibody (Composition D)” value ([2]; sodium azide 120 mM) was 63.4 mABS/min. For the same compound, the Relative sensitivity ([2]; sodium azide 120 mM, G3CNP at 300 mM = 100) was 139.0%, the “Percent residual enzyme activity” value ([2]; sodium azide 120 mM) was 102.4% and the “Change in absorbance … (Composition C)” value ([2]; sodium azide 150 mM) was 68.2 mABS/min. For the same compound, the “Change in absorbance, Without antibody (Composition D)” value ([2]; sodium azide 150 mM) was 68.4 mABS/min, the Relative sensitivity ([2]; sodium azide 150 mM, G3CNP at 300 mM = 100) was 150.0% and the “Percent residual enzyme activity” value ([2]; sodium azide 150 mM) was 99.7%. For the same compound, the “Change in absorbance … (Composition C)” value ([2]; sodium azide 200 mM) was 72.2 mABS/min, the “Change in absorbance, Without antibody (Composition D)” value ([2]; sodium azide 200 mM) was 70.1 mABS/min and the Relative sensitivity ([2]; sodium azide 200 mM, G3CNP at 300 mM = 100) was 153.7%. For the same compound, the “Percent residual enzyme activity” value ([2]; sodium azide 200 mM) was 103.0%, the “Change in absorbance … (Composition C)” value ([2]; sodium azide 250 mM) was 74.4 mABS/min and the “Change in absorbance, Without antibody (Composition D)” value ([2]; sodium azide 250 mM) was 72.4 mABS/min. The Relative sensitivity ([2]; sodium azide 250 mM, G3CNP at 300 mM = 100) was 158.8%, the “Percent residual enzyme activity” value ([2]; sodium azide 250 mM) was 102.8% and the “Change in absorbance … (Composition C)” value ([2]; sodium azide 300 mM) was 76.8 mABS/min. For the same compound, the “Change in absorbance, Without antibody (Composition D)” value ([2]; sodium azide 300 mM) was 75.6 mABS/min, the Relative sensitivity ([2]; sodium azide 300 mM, G3CNP at 300 mM = 100) was 165.8% and the “Percent residual enzyme activity” value ([2]; sodium azide 300 mM) was 101.6%. For the same compound, the “P-type amylase activity value” ([3]; Serum 1, composition E) was 32.3 IU/L, the “P-type amylase activity value” ([3]; Serum 2, composition E) was 205.0 IU/L and the “P-type amylase activity value” ([3]; Serum 3, composition E) was 156.8 IU/L. For the same compound, the “sensitivity (change in absorbance) compared with Comparative Example” value ([3]; Table 5, serum samples) was “superior sensitivity” and the “Blank, change in absorbance per minute” value ([3]; distilled water as sample, composition E) was 0.0004 ABS/min.
